What is called melting point is the temperature, or range, at which the solid turns liquid. As a reminder, the Ki is the equilibrium dissociation constant of an inhibitor or competing ligand from its target.

The results in this text go back to patent US6515140B2, “Fused pyrrolecarboxamides; a new class of GABA brain receptor ligands” (Neurogen Corporation, priority 1996, dated 2003).

The target in one data set is GABAa receptor. The experiment in a line: GABAa receptor binding assay (3H-RO15-1788 displacement). The settings on record: rat cortical tissue homogenate; radioligand 0.5 nM 3H-RO15-1788 [3H-Flumazenil]; 30 min at 4° C. Here is the method:
The pharmaceutical utility of compounds of this invention are indicated by the following assay for GABAa receptor binding activity.
Assays are carried out as described in Thomas and Tallman (J. Bio. Chem. 156:9838-9842 , J. Neurosci. 3:433-440, 1983). Rat cortical tissue is dissected and homogenized in 25 volumes (w/v) of 0.05 M Tris HCl buffer (pH 7.4 at 4° C.). The tissue homogenate is centrifuged in the cold (4°) at 20,000×g for 20′. The supernatant is decanted and the pellet is rehomogenized in the same volume of buffer and again centrifuged at 20,000×g. The supernatant is decanted and the pellet is frozen at −20° C. overnight. The pellet is then thawed and rehomogenized in 25 volume (original wt/vol) of buffer and the procedure is carried out twice. The pellet is finally resuspended in 50 volumes (w/vol of 0.05 M Tris HCl buffer (pH 7.4 at […]).
Incubations contain […] of tissue homogenate, […] of radioligand 0.5 nM (^3H-RO15-1788 [^3H-Flumazenil] specific activity 80 Ci/mmol), drug or blocker and buffer to a total volume of […]. Incubations are carried for 30 min at 4° C. then are rapidly filtered through GFB filters to separate free and bound ligand. Filters are washed twice with fresh 0.05 M Tris HCl buffer (pH 7.4 at 4° C.) and counted in a liquid scintillation counter. […] diazepam is added to some tubes to determine nonspecific binding. Data are collected in triplicate determinations, averaged and % inhibition of total specific binding is calculated. Total Specific Binding=Total−Nonspecific. In some cases, the amounts of unlabeled drugs is varied and total displacement curves of binding are carried out.

On to `O=C(Nc1ccc2c(c1)OCO2)c1c[nH]c2c1C(=O)CCC2` [Compound 10, N-(1,3-Benzodioxol-5-yl)-4-oxo-4,5,6,7-tetrahydro-1H-indole-3-carboxamide], for which the melting point is 248 to 249 °C. This molecule also had a Ki on GABAa receptor of 37 nM.

In turn, `CNCc1ccc(NC(=O)c2c[nH]c3c2C(=O)CCC3)c(F)c1` [Compound 3, N-[2-Fluoro-4-(methylaminomethyl)phenyl]-4-oxo-4,5,6,7-tetrahydro-1H-indole-3-carboxamide] registered a melting point of 186 to 188 °C. The molecule also returned a Ki at GABAa receptor of 49 nM.

Consider `CNCc1cccc(NC(=O)c2c[nH]c3c2C(=O)CCC3)c1` [Compound 1, N-[3-(Methylaminomethyl)phenyl]-4-oxo-4,5,6,7-tetrahydro-1H-indole-3-carboxamide], for which the melting point lay within 130 to 132 °C. In addition, the Ki at GABAa receptor was determined as 90 nM.

Turning to `O=C(Nc1ccc2c(c1)OCCO2)c1c[nH]c2c1C(=O)CCCC2` [Compound 12, N-(2,3-Dihydro-1,4-benzodioxin-6-yl)-4-oxo-1,4,5,6,7,8-hexahydro-cyclohepta[b]pyrrole-3-carboxamide], the melting point was in the range of 222 to 223 °C. Further, the affinity on GABAa receptor, expressed as Ki, was 5 nM.

On GABAa receptor, `O=C(Nc1ccc(OCCO)nc1)c1c[nH]c2c1C(=O)CCC2` [Compound 14] came in with a Ki of 3 nM.

On to `CNCCc1ccc(NC(=O)c2c[nH]c3c2C(=O)CCC3)cc1` [Compound 4, N-[4-(2-Methylaminoethyl)phenyl]-4-oxo-4,5,6,7-tetrahydro-1H-indole-3-carboxamide], for which the melting point lay within 197 to 200 °C. Further, the Ki at GABAa receptor was found to be 0.24 nM.

For `CC1CC(=O)c2c(C(=O)Nc3ccc4c(c3)OC(C)(C)O4)c[nH]c2C1` (centres unmarked) [Compound 40, N-(2,2-Dimethyl-1,3-benzodioxol-5-yl)-4-oxo-6-methyl-4,5,6,7-tetrahydro-1H-indole-3-carboxamide], the melting point is 155 to 157 °C.

Regarding `CC1(C)CC(=O)c2c(C(=O)Nc3cccc(CO)c3)c[nH]c2C1` [Compound 8, N-[3-(Hydroxymethyl)phenyl]-4-oxo-6,6-dimethyl-4,5,6,7-tetrahydro-1H-indole-3-carboxamide], the melting point lay within 233 to 235 °C. The molecule further came in with a Ki on GABAa receptor of 27 nM.

`O=C(Nc1ccc2c(c1)OCCO2)c1c[nH]c2c1C(=O)CCC2` [Compound 11, N-(2,3-Dihydro-1,4-benzodioxin-6-yl)-4-oxo-4,5,6,7-tetrahydro-1H-indole-3-carboxamide] came in with a melting point of 254 to 256 °C. The inhibition constant (Ki) on GABAa receptor worked out at 7 nM.

In turn, `O=C(Nc1ccc2c(c1)NCC2)c1c[nH]c2c1C(=O)CCC2` [Compound 13, N-(2,3-Dihydro-1H-indol-6-yl)-4-oxo-4,5,6,7-tetrahydro-1H-indole-3-carboxamide] yielded a melting point of 322 to 323 °C. The molecule further had a Ki on GABAa receptor of 24 nM.

As to `CC(C)CNCCOc1ccc(NC(=O)c2c[nH]c3c2C(=O)CCC3)cc1F` [Compound 77, N-[3-Fluoro-4-(2-Isobutylaminoethoxy)phenyl]-4-oxo-4,5,6,7-tetrahydro-1H-indole-3-carboxamide], the melting point lay in the range of 147 to 149 °C.

Regarding `CCNCc1ccc(NC(=O)c2c[nH]c3c2C(=O)CCC3)cc1` [Compound 21, N-[4-(Ethylaminomethyl)phenyl]-4-oxo-4,5,6,7-tetrahydro-1H-indole-3-carboxamide], the melting point fell in the range of 194 to 195 °C.

`CNCc1ccc(NC(=O)c2c[nH]c3c2C(=O)CCCC3)cc1` [Compound 7] had a melting point of 173 to 175 °C. At GABAa receptor, this molecule yielded a Ki of 30 nM.

Regarding `CN(C)Cc1ccc(NC(=O)c2c[nH]c3c2C(=O)CCC3)cc1` [Compound 23, N-[4-(Dimethylaminomethyl)phenyl]-4-oxo-4,5,6,7-tetrahydro-1H-indole-3-carboxamide], the melting point was 216 to 218 °C.

Regarding `O=C(Nc1cccc(OCCCNC23CC4CC(CC(C4)C2)C3)c1)c1c[nH]c2c1C(=O)CCCC2` [Compound 183, N-[3-(3-Adamant-1-ylaminopropoxy)phenyl]4-oxo-1,4,5,6,7,8-hexahydro-cyclohepta[b]pyrrole-3-carboxamide], the melting point fell in the range of 175 to 176 °C.

Molecule `CC(C)(C)NCCOc1ccncc1NC(=O)c1c[nH]c2c1C(=O)CCC2` [Compound 112, N-[4-(2-t-Butylaminoethoxy)pyrid-3-yl]-4-oxo-4,5,6,7-tetrahydro-1H-indole-3-carboxamide] gave a melting point of 274 to 278 °C.

As to `COCCOc1ccc(NC(=O)c2c[nH]c3c2C(=O)CCC3)cc1` [Compound 2, N-[4-(Methoxyethoxy)phenyl]-4-oxo-4,5,6,7-tetrahydro-1H-indole-3-carboxamide], at GABAa receptor, the affinity, expressed as Ki, was 29 nM.

In turn, `O=C(Nc1ccc(OCCNC2C3CC4CC(C3)CC2C4)cc1)c1c[nH]c2c1C(=O)CCC2` (centres unmarked) [Compound 83, N-[4-(2-adamant-2-ylaminoethoxy)phenyl]-4-oxo-4,5,6,7-tetrahydro-1H-indole-3-carboxamide] showed a melting point of 144 to 149 °C.

In turn, `CN(C)CCOc1ccc(NC(=O)c2c[nH]c3c2C(=O)CCC3)cc1F` [Compound 89, N-[3-Fluoro-4-(2-dimethylaminoethoxy)phenyl]-4-oxo-4,5,6,7-tetrahydro-1H-indole-3-carboxamide] showed a melting point of 203 °C.

Molecule `CC1CC(=O)c2c(C(=O)Nc3ccc4c(c3)OCO4)c[nH]c2C1` (centres unmarked) [Compound 41, N-(1,3-Benzodioxol-5-yl)-4-oxo-6-methyl-4,5,6,7-tetrahydro-1H-indole-3-carboxamide] returned a melting point of 297 to 299 °C.

On to `CN(C)CCOc1ccc(NC(=O)c2c[nH]c3c2C(=O)CCC3)cc1` [Compound 88, N-[4-(2-Dimethylaminoethoxy)phenyl]-4-oxo-4,5,6,7-tetrahydro-1H-indole-3-carboxamide], for which the melting point was found to be 201 °C.

For the molecule `CCN(CC)CCN(CC)C(=O)COc1ccc(NC(=O)c2c[nH]c3c2C(=O)CCC3)cc1`, the melting point is 165 to 167 °C.

Regarding `CC1CC(=O)c2c(C(=O)Nc3ccc(OCCO)cc3)c[nH]c2C1` (centres unmarked) [Compound 9, N-[4-(2-Hydroxyethoxy)phenyl]-4-oxo-6-methyl-4,5,6,7-tetrahydro-1H-indole-3-carboxamide], the melting point lay within 245 to 247 °C. At GABAa receptor, this molecule showed a Ki of 1.3 nM.

For the molecule `NCc1ccc(NC(=O)c2c[nH]c3c2C(=O)CCC3)cc1` [Compound 6, N-[4-(Aminomethyl)phenyl]-4-oxo-4,5,6,7-tetrahydro-1H-indole-3-carboxamide], the melting point is > 200 °C (dec.). On GABAa receptor, this molecule yielded a Ki of 9 nM.

Turning to `CCNCCOc1ccncc1NC(=O)c1c[nH]c2c1C(=O)CCC2.Cl`, the melting point was in the range of 178 to 180 °C.

With `Cl.O=C(Nc1cnccc1OCCN1CCCC1)c1c[nH]c2c1C(=O)CCCC2`, the melting point lay in the range of 160 to 162 °C.

Molecule `CC(C)NCCOc1ccc(NC(=O)c2c[nH]c3c2C(=O)CCC3)cc1` [Compound 69, N-[4-(2-Isopropylaminoethoxy)phenyl]-4-oxo-4,5,6,7-tetrahydro-1H-indole-3-carboxamide] returned a melting point of 284 to 286 °C.

With `O=C(Nc1ccc(OCCN2CCCC2)cc1)c1c[nH]c2c1C(=O)CCC2` [Compound 90, N-[4-(2-Pyrrolidin-1-ylethoxy)phenyl]-4-oxo-4,5,6,7-tetrahydro-1H-indole-3-carboxamide], the melting point is 164 to 168 °C.

Molecule `CCN(CC)CCN(C)C(=O)COc1ccc(NC(=O)c2c[nH]c3c2C(=O)CCC3)cc1` came in with a melting point of 220 to 228 °C.

As for `Cl.O=C(Nc1cnccc1OCCN1CCCCC1)c1c[nH]c2c1C(=O)CCC2`, the melting point was 208 to 211 °C.

Molecule `Cl.O=C(Nc1cnccc1OCCNCc1ccccc1)c1c[nH]c2c1C(=O)CCC2` gave a melting point of 143 to 145 °C.

The molecule `CC(C)CNCCOc1ccc(NC(=O)c2c[nH]c3c2C(=O)CCC3)c(F)c1` [Compound 76, N-[2-Fluoro-4-(2-Isobutylaminoethoxy)phenyl]-4-oxo-4,5,6,7-tetrahydro-1H-indole-3-carboxamide] returned a melting point of 152 to 155 °C.

`CNCc1ccc(NC(=O)c2c[nH]c3c2C(=O)CC(C)(C)C3)cc1` [Compound 32, N-[4-(Methylaminomethyl)phenyl]-4-oxo-6,6-dimethyl-4,5,6,7-tetrahydro-1H-indole-3-carboxamide] gave a melting point of 230 to 232 °C.

As for `Cl.O=C(Nc1cnccc1OCc1ccncc1)c1c[nH]c2c1C(=O)CCC2`, the melting point amounted to 293 °C.

Molecule `O=C(Nc1ccc2c(c1)NCCO2)c1c[nH]c2c1C(=O)CCC2` [Compound 33, N-(3,4-Dihydro-2H-1,4-benzoxazin-6-yl)-4-oxo-4,5,6,7-tetrahydro-1H-indole-3-carboxamide] had a melting point of 216 °C.

`CCN(CC)C(=O)COc1ccc(NC(=O)c2c[nH]c3c2C(=O)CCC3)cc1F` [Compound 225, N-[3-Fluoro-4-(2-diethylamino-2-oxoethoxy)phenyl]-4-oxo-4,5,6,7-tetrahydro-1H-indole-3-carboxamide] showed a melting point of 193 to 196 °C.
